Eleven compounds from PubChem BioAssay (NCI) can be followed below.

Some test systems named below: COLO 205 colon; K-562 leukemia; SF-295 CNS; OVCAR-8 ovarian; IGROV1 ovarian; MOLT-4 leukemia; SW-620 colon; M14 melanoma; SR leukemia; HS 578T breast.
Experiment in all cases: inhibition of tumour cell growth, NCI panel, 48 h

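Interpolation was linear, between the two tested concentrations surrounding the appropriate level; five concentrations were tested over 48 hours in 96-well plates. GI50 = concentration required for 50% inhibition of growth. Definition used: TGI = concentration required for complete inhibition of growth.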

On to `COc1ccc(C(=O)C(C(=O)C(=O)NCCCNC(=O)C(=O)C(C(=O)c2ccc(OC)cc2)c2ccc(OC)cc2)c2ccc(OC)cc2)cc1` (stereo not drawn), for which the TGI with COLO 205 colon, with K-562 leukemia, in the test with SF-295 CNS, in the test on OVCAR-8 ovarian, with IGROV1 ovarian and in the test on MOLT-4 leukemia was greater than 100 µM in each case. Moreover, the TGI in the test with SW-620 colon, in the test on M14 melanoma and in the test on SR leukemia was greater than 100 µM in each case.
On to `N#CC1=C(N)OC2=C(CCOc3c2ccc2ccccc32)C1c1ccc(Br)cc1` (stereo not drawn), for which the GI50 in the test with COLO 205 colon was 29 µM; in the test on K-562 leukemia, 16.5 µM; in the test with SF-295 CNS it was 18.1 µM; with OVCAR-8 ovarian, 77.5 µM; in the test on MOLT-4 leukemia, 11.3 µM; in the test with SW-620 colon it was greater than 100 µM. Further, the GI50 in the test on M14 melanoma was 26.9 µM; in the test on SR leukemia, 17 µM. Also, the TGI in the test with COLO 205 colon is greater than 100 µM; in the test on K-562 leukemia it was 54.3 µM; in the test on SF-295 CNS it was 83.8 µM; in the test with OVCAR-8 ovarian, greater than 100 µM; in the test on MOLT-4 leukemia, 49 µM; in the test with SW-620 colon, greater than 100 µM. Also, the TGI is greater than 100 µM in the test on M14 melanoma and 57.8 µM with SR leukemia.
For the compound `Cc1cc(N2CCOCC2)nc(NCc2cc(Nc3ccnc4cc(Cl)ccc34)ccc2F)n1`, the GI50 is 0.665 µM in the test with COLO 205 colon; 1.78 µM in the test with K-562 leukemia; 1.59 µM in the test with SF-295 CNS; 1.86 µM with OVCAR-8 ovarian; 1.64 µM in the test on IGROV1 ovarian; 1.4 µM in the test with MOLT-4 leukemia. Besides, the GI50 in the test with SW-620 colon is 1.63 µM; in the test with M14 melanoma it was 1.86 µM; in the test with SR leukemia, 1.61 µM. The TGI worked out at 2.15 µM in the test on COLO 205 colon; 4.49 µM in the test with K-562 leukemia; 3.03 µM with SF-295 CNS; 3.58 µM in the test on OVCAR-8 ovarian; 3.92 µM with IGROV1 ovarian; 3.66 µM in the test with MOLT-4 leukemia. Also, the TGI with SW-620 colon worked out at 3.28 µM; in the test with M14 melanoma it was 3.57 µM; in the test on SR leukemia it was 3.82 µM.
As to `COc1ccc2nc3ccccc3c(NCCCCN(CCCl)CCCl)c2c1`, the TGI in the test with HS 578T breast is greater than 22.1 µM; in the test with SF-295 CNS it was 18.6 µM; with OVCAR-8 ovarian it was 0.625 µM; with IGROV1 ovarian it was 17.7 µM; in the test on MOLT-4 leukemia, less than 0.0369 µM; in the test on SW-620 colon, 2.74 µM. Further, the TGI in the test with SR leukemia stood at 2.79 µM.
As for `COC(=O)c1cc2cc(/C=C3/SC(=S)N(N(C(C)=O)C(C)=O)C3=O)oc2n1Cc1ccccc1`, the GI50 in the test on HS 578T breast was 24.2 µM; in the test with COLO 205 colon, 77.6 µM; in the test on K-562 leukemia, 22.7 µM; in the test on SF-295 CNS, 13.2 µM; in the test with OVCAR-8 ovarian, 18.3 µM; in the test with IGROV1 ovarian, 22.4 µM. The GI50 with MOLT-4 leukemia is 59.9 µM; in the test on SW-620 colon, 41 µM; in the test on M14 melanoma, 11 µM. Moreover, the TGI in the test on HS 578T breast is 76.6 µM; in the test with COLO 205 colon, greater than 100 µM; in the test with K-562 leukemia, 53.7 µM; in the test with SF-295 CNS, 52.4 µM; in the test with OVCAR-8 ovarian, 42.8 µM; in the test with IGROV1 ovarian, 57.3 µM. The TGI in the test with MOLT-4 leukemia is greater than 100 µM; in the test with SW-620 colon it was greater than 100 µM; in the test with M14 melanoma, 40.6 µM.
Consider `CSc1nnc(C(C#N)C#N)nn1`, for which the TGI with COLO 205 colon, in the test with K-562 leukemia, with SF-295 CNS, in the test on OVCAR-8 ovarian, in the test on IGROV1 ovarian and in the test on MOLT-4 leukemia was greater than 100 µM throughout. The TGI in the test on SW-620 colon, with M14 melanoma and in the test with SR leukemia was greater than 100 µM in each case.
Regarding `COC1/C(=C\C(C)=O)c2ccccc2N1C(C)=O` (stereo not drawn), the TGI in the test on COLO 205 colon, in the test on K-562 leukemia, in the test with SF-295 CNS, in the test with OVCAR-8 ovarian, with IGROV1 ovarian and with MOLT-4 leukemia was greater than 100 µM in each case. Further, the TGI in the test with SW-620 colon, in the test on M14 melanoma and with SR leukemia was greater than 100 µM in each case.
As for `O=C1/C(=C/c2ccc(C(F)(F)F)cc2)COc2ccc(O)c(O)c21`, the GI50 was 2.2 µM with HS 578T breast; 1.58 µM with COLO 205 colon; 0.289 µM with K-562 leukemia; 3.15 µM in the test on SF-295 CNS; 0.846 µM in the test with OVCAR-8 ovarian; 0.476 µM in the test with IGROV1 ovarian. Besides, the results for the GI50 with M14 melanoma and in the test with SR leukemia were 1.78 µM and 0.267 µM, respectively. Moreover, the TGI in the test with HS 578T breast is 6.02 µM; in the test on COLO 205 colon, 3.06 µM; in the test on K-562 leukemia it was greater than 100 µM; in the test with SF-295 CNS, 8.52 µM; in the test on OVCAR-8 ovarian it was 2.96 µM; with IGROV1 ovarian it was 1.84 µM. The TGI stood at 4.04 µM in the test on M14 melanoma and 2.53 µM with SR leukemia.
Regarding `Cc1cc(Br)ccc1N=Nc1c(C)nn(-c2ccccc2)c1-c1ccccc1`, the TGI in the test on COLO 205 colon, with K-562 leukemia, with SF-295 CNS, in the test with OVCAR-8 ovarian, in the test with IGROV1 ovarian and with MOLT-4 leukemia was greater than 100 µM throughout. Also, the TGI in the test on SW-620 colon, in the test on M14 melanoma and in the test with SR leukemia was greater than 100 µM each time.
Consider `COc1cc(O)c(C(=O)/C=C/c2ccc(OC)c(OCc3ccccc3)c2)c(OC)c1`, for which the TGI is 2.09 µM in the test with COLO 205 colon; greater than 100 µM with K-562 leukemia; 2.43 µM with SF-295 CNS; greater than 100 µM in the test with OVCAR-8 ovarian; greater than 100 µM with IGROV1 ovarian; greater than 100 µM with MOLT-4 leukemia. The TGI with SW-620 colon, in the test with M14 melanoma and in the test on SR leukemia was greater than 100 µM throughout.
For the compound `CC1=C(C(=O)Nc2ccc(Cl)c(Cl)c2)C(c2cccc(Cl)c2)NC(=S)N1` (stereo not drawn), the GI50 with COLO 205 colon was 17.4 µM; in the test on K-562 leukemia, 19.7 µM; with SF-295 CNS it was 17.4 µM; in the test with OVCAR-8 ovarian, 12.4 µM; in the test on IGROV1 ovarian, 8.83 µM; in the test on MOLT-4 leukemia, 23.2 µM. Also, the GI50 in the test on SW-620 colon is 15.6 µM; in the test with M14 melanoma, 9.75 µM; with SR leukemia, 17.1 µM. Besides, the TGI in the test with COLO 205 colon was greater than 50 µM; in the test with K-562 leukemia, greater than 50 µM; in the test on SF-295 CNS, greater than 50 µM; in the test on OVCAR-8 ovarian, 31.7 µM; with IGROV1 ovarian, 35 µM; with MOLT-4 leukemia, greater than 50 µM. For the same compound, the TGI with SW-620 colon was 36.1 µM; in the test on M14 melanoma, 20.2 µM; with SR leukemia, greater than 50 µM.
